Laboratory results from patent US20100055168A1, “CATIONIC LIPIDS AND USES THEREOF” (ABBOTT LABORATORIES, priority 2008, published 2010).

Assays:
[1] = Ribogreen assay for siRNA encapsulation efficiency of Lipid-Based Particles; format: physicochemical; settings: Lipid:siRNA 25:1
Procedure: The mixing solution of cationic lipids, cholesterol, non-cationic lipids and PEG-lipids was prepared in ethanol (total concentration at 10 mg/mL). siSTABLE (purchased from ThermoFisher) (sense-5′ GGGGAAAGCUGGCAAGAUUUU-3′ SEQ ID NO: 1) antisense-5′-AAUCUUGCCAGCUUUCCCCUU-3′ SEQ ID NO: 2) % stock solution was prepared in 10 mg/mL of solution by dissolving 10 mg siRNA in 1 mL of RNAse-free UltraPure Water. The calculated amount of siRNA solution was added to 1 mL of citrate buffer (pH 4.0, 20 mM), to provide an siRNA concentration of 0.2 mg/mL, and warmed to 60° C. The calculated amount of lipid solution was warmed to 60° C., transferred to a 0.5 mL syringe with 28½ gauge needle, and injected into the citrate buffer with stirring at 60° C. After 3 minutes, 3 mL of PBS solution at room temperature (pH 7.4) was added into the lipid mixture with stirring. The Lipid-Based Particle solution was cooled to room temperature.
(§1) The siRNA concentrations were measured using Quanti-iT RiboGreen RNA reagent (Molecular Probes, (R11490)). Vesicle sizes were characterized by dynamic light scattering with a DynaPro™ Plate Reader (Wyatt Technology) in 96-well half-area UV plate (Coring) after diluting the formulation sample (20 μL) in phosphate buffered saline (80 μL) at a pH of about 7-8. A 1% agarose gel-based assay was used for analyzing nuclease degradation and protection. Encapsulation efficiency (EE) was calculated using data obtained from a RiboGreen assay.
RNA concentration and encapsulation efficiency were determined using a Quant-iT® Ribogreen RNA reagent and kit available from Invitrogen. The siRNA was released from the Lipid-Based Particle using one of the following reagents: ethanol, Triton X-100, or phenol/chloroform. The siRNA concentration is quantified using fluorescent reading at 480 nm/520 nm.
A round bottom flask was submerged into a 65° C. water bath. Citrate buffer (37.5 ml) of pH 4.0 was pipetted into the flask. The solution was stirred by a magnetic stirring bar at a speed of 900 rpm. Both the pH 4.0 citrate buffer and the lipid solution were pre-warmed in the 65° C. water bath for about 3 minutes. A siRNA solution (0.5 ml) was pipetted into the pH 4.0 citrate buffer. The 12.5 ml lipid mixture solution was injected through a 27 gauge needle into the citrate buffer in about 30 seconds. The needle tip was inserted into the solution during the injection. The resulting solution was stirred for 5 minutes at a speed of 900 rpm. The flask was pulled up from the water bath and a 50 ml pH 7.4 PBS buffer was added into the flask. The final solution was further mixed at a speed of 900 rpm for 5 minutes. For the diafiltration process, a dialysis filter (Millipore, 100K, Cat #PXB100C50) was used to remove ethanol in the above solution. When the volume was reduced to 20 ml during the initial diafiltration, 20 ml of pH 7.4 PBS was added to the sample solution. The diafiltration was continued until the volume was reduced to 20 ml. The diafiltration process was repeated 4 times. The volume of the sample solution was reduced to about 12 ml and pH 7.4 PBS was added to make the final volume of 15 ml. The 15 ml solution was filtered sequentially through the 0.45 and 0.22 μm sterile PVDF membrane filters (Millipore) and immediately transferred into a sterile vial.

[2] = Particle sizing assay of in vitro formulations (dynamic light scattering, DynaPro plate reader); format: physicochemical; settings: Lipid:siRNA 25:1
Procedure: as §1
Particle sizes and size distributions (PDI) were characterized by using dynamic light scattering (DLS). A DLS plate reader (Dynapro™, Wyatt Technology) was used for the DLS measurement. This DLS plate reader uses an 830 nm laser and the scattering angle is 158°. It also can control temperature from 4° C. to 70° C. A 96-well format was employed for the samples.
Samples for DLS analysis were prepared by mixing 20 μL of each sample stock solution with 80 μL PBS directly in the 96-well plate (#3697, Coming). Sample mixing was accomplished using a microplate shaker (Orbis, Mikura Ltd.). Plates were read at 20° C. with an acquisition time of 50 seconds for each sample, and data was analyzed with Wyatt Technology's Dynamics V6 software. To rule out potential multiple scattering artifacts, a second plate at […] reduced sample concentrations was independently prepared by mixing 5 μL stock solutions with 95 μL PBS. Under our experimental conditions the results at the two concentrations were very similar, and the final reported result for each sample represents the average of values obtained from the two plates.

[3] = in vitro formulation b: Cationic lipid/PEG-Chol/DSPC/Chol 45/10/15/30 wt %
[4] = in vitro formulation a: Cationic lipid/Example 56/DSPC/Chol 45/10/15/30 wt %

| Structure (SMILES) | % Encapsulation Efficiency [1, 3] [%] | Size [2, 4] [nm] | other results |
| --- | --- | --- | --- |
| CCCCC/C=C\C/C=C\CCCCCCCCOCC(COCCCCCCCC/C=C\C/C=C\CCCCC)N1CCN(CCCN(C)C)CC1 [Example 10, N,N-dimethyl-N-(3-(4-(2-((9Z,12Z)-octadeca-9,12-dienyloxy)-1-(((9Z,12Z)-octadeca-9,12-dienyloxy)methyl)ethyl)piperazin-1-yl)propyl)amine] | 72.6 | – | Size [2, 3]: 112 nm |
| CCCCC/C=C\C/C=C\CCCCCCCCOCC(COCCCCCCCC/C=C\C/C=C\CCCCC)N(C)CC1CCN(C)CC1 [Example 16, N-methyl-N-((1-methylpiperidin-4-yl)methyl)-N-(2-((9Z,12Z)-octadeca-9,12-dienyloxy)-1-(((9Z,12Z)-octadeca-9,12-dienyloxy)methyl)ethyl)amine] | 93.1 | – | Size [2, 3]: 130 nm |
| CCCCC/C=C\C/C=C\CCCCCCCCOCC(COCCCCCCCC/C=C\C/C=C\CCCCC)CN(C)C [Example 27, N,N-dimethyl-N-(3-[(9Z,12Z)-octadeca-9,12-dienyloxy]-2-{[(9Z,12Z)-octadeca-9,12-dienyloxy]methyl}propyl)amine] | 71.9 | – | – |
| CCCCC/C=C\C/C=C\CCCCCCCCOCC(COCCCCCCCC/C=C\C/C=C\CCCCC)N1CCOCC1 [Example 5, 4-(2-((9Z,12Z)-octadeca-9,12-dienyloxy)-1-(((9Z,12Z)-octadeca-9,12-dienyloxy)methyl)ethyl)morpholine] | – | 143 | PDI (size distribution) [2, 4]: 0.14 |
| CCCCC/C=C\C/C=C\CCCCCCCCOCC(COCCCCCCCC/C=C\C/C=C\CCCCC)NCc1cccc(CN2CCCC2)c1 [Example 13, N-(2-((9Z,12Z)-octadeca-9,12-dienyloxy)-1-(((9Z,12Z)-octadeca-9,12-dienyloxy)methyl)ethyl)-N-(3-(pyrrolidin-1-ylmethyl)benzyl)amine] | – | 146 | % Encapsulation Efficiency [1, 4]: 97.1% |
| CCCCC/C=C\C/C=C\CCCCCCCCOCC(COCCCCCCCC/C=C\C/C=C\CCCCC)N1CCN(CCn2ccnc2)CC1 [Example 19, 1-(2-(1H-imidazol-1-yl)ethyl)-4-(2-((9Z,12Z)-octadeca-9,12-dienyloxy)-1-(((9Z,12Z)-octadeca-9,12-dienyloxy)methyl)ethyl)piperazine] | – | 118 | % Encapsulation Efficiency [1, 4]: 97.0% |
| CCCCC/C=C\C/C=C\CCCCCCCCOCC(COCCCCCCCC/C=C\C/C=C\CCCCC)NCC1CCN(C)CC1 [Example 12, N-((1-methylpiperidin-4-yl)methyl)-N-(2-((9Z,12Z)-octadeca-9,12-dienyloxy)-1-(((9Z,12Z)-octadeca-9,12-dienyloxy)methyl)ethyl)amine] | 84.9 | – | Size [2, 3]: 119.8 nm |
| CCCCC/C=C\C/C=C\CCCCCCCCOCC(COCCCCCCCC/C=C\C/C=C\CCCCC)N(C)CCCN(C)C [Example 17, N,N,N′-trimethyl-N′-(2-((9Z,12Z)-octadeca-9,12-dienyloxy)-1-(((9Z,12Z)-octadeca-9,12-dienyloxy)methyl)ethyl)propane-1,3-diamine] | 87.1 | – | Size [2, 3]: 121.8 nm |
| CCCCC/C=C\C/C=C\CCCCCCCCOCC(COCCCCCCCC/C=C\C/C=C\CCCCC)NCc1cccc(CN2CCN(C)CC2)c1 [Example 15, N-(3-((4-methylpiperazin-1-yl)methyl)benzyl)-N-(2-((9Z,12Z)-octadeca-9,12-dienyloxy)-1-(((9Z,12Z)-octadeca-9,12-dienyloxy)methyl)ethyl)amine] | – | 116 | % Encapsulation Efficiency [1, 4]: 96.2% |
| CCCCC/C=C\C/C=C\CCCCCCCCOCC(COCCCCCCCC/C=C\C/C=C\CCCCC)NCc1cccnc1N1CCCC1 [Example 20, N-(2-((9Z,12Z)-octadeca-9,12-dienyloxy)-1-(((9Z,12Z)-octadeca-9,12-dienyloxy)methyl)ethyl)-N-((2-pyrrolidin-1-ylpyridin-3-yl)methyl)amine] | – | 134 | % Encapsulation Efficiency [1, 4]: 55.9% |
| CCCCC/C=C\C/C=C\CCCCCCCCOCC(COCCCCCCCC/C=C\C/C=C\CCCCC)N(C)C [Example 2, N,N-dimethyl-N-(2-((9Z,12Z)-octadeca-9,12-dienyloxy)-1-(((9Z,12Z)-octadeca-9,12-dienyloxy)methyl)ethyl)amine] | – | 134 | – |
| CCCCC/C=C\C/C=C\CCCCCCCCOCC(COCCCCCCCC/C=C\C/C=C\CCCCC)NCCCNCCCCNCCCN [Example 25, N-(3-aminopropyl)-N′-{3-[(2-[(9Z,12Z)-octadeca-9,12-dienyloxy]-1-{[(9Z,12Z)-octadeca-9,12-dienyloxy]methyl}ethyl)amino]propyl}butane-1,4-diamine] | 92.3 | – | – |

The next lines start with results.

| % Encapsulation Efficiency [1, 3] [%] | Size [2, 4] [nm] | Structure (SMILES) | other results |
| --- | --- | --- | --- |
| – | 132 | CCCCC/C=C\C/C=C\CCCCCCCCOCC(N)COCCCCCCCC/C=C\C/C=C\CCCCC [Example 11, 1,3-bis((9Z,12Z)-octadeca-9,12-dienyloxy)propan-2-amine] | % Encapsulation Efficiency [1, 4]: 96.0% |
| – | 170 | CCCCC/C=C\C/C=C\CCCCCCCCOCC(COCCCCCCCC/C=C\C/C=C\CCCCC)N1CCCC1 [Example 1, 1-(2-((9Z,12Z)-octadeca-9,12-dienyloxy)-1-(((9Z,12Z)-octadeca-9,12-dienyloxy)methyl)ethyl)pyrrolidine] | PDI (size distribution) [2, 4]: 0.20 |
| 95.0 | – | CCCCC/C=C\C/C=C\CCCCCCCCOCC(COCCCCCCCC/C=C\C/C=C\CCCCC)COC(=O)NCCN1CCCC1 [Example 29, 3-[(9Z,12Z)-octadeca-9,12-dienyloxy]-2-{[(9Z,12Z)-octadeca-9,12-dienyloxy]methyl}propyl 2-pyrrolidin-1-ylethylcarbamate] | – |
| 95.0 | – | CCCCC/C=C\C/C=C\CCCCCCCCOCC(COCCCCCCCC/C=C\C/C=C\CCCCC)COC(=O)NCCN(C)C [Example 30, 3-[(9Z,12Z)-octadeca-9,12-dienyloxy]-2-{[(9Z,12Z)-octadeca-9,12-dienyloxy]methyl}propyl 2-(dimethylamino)ethylcarbamate] | – |
| 91.7 | – | CCCCC/C=C\C/C=C\CCCCCCCCOCC(COCCCCCCCC/C=C\C/C=C\CCCCC)CN1CCCC1 [Example 24, 1-(3-((9Z,12Z)-octadeca-9,12-dienyloxy)-2-(((9Z,12Z)-octadeca-9,12-dienyloxy)methyl)propyl)pyrrolidine] | – |
| 99.9 | – | CCCCC/C=C\C/C=C\CCCCCCCCOCC(CNCCCN1CCCC1)COCCCCCCCC/C=C\C/C=C\CCCCC [Example 26, N-(3-[(9Z,12Z)-octadeca-9,12-dienyloxy]-2-{[(9Z,12Z)-octadeca-9,12-dienyloxy]methyl}propyl)-N-(3-pyrrolidin-1-ylpropyl)amine] | – |
| 93.0 | – | CCCCC/C=C\C/C=C\CCCCCCCCOCC(COCCCCCCCC/C=C\C/C=C\CCCCC)COC(=O)NCCN(CC)CC [Example 28, 3-[(9Z,12Z)-octadeca-9,12-dienyloxy]-2-{[(9Z,12Z)-octadeca-9,12-dienyloxy]methyl}propyl 2-(diethylamino)ethylcarbamate] | – |
